Here are results for 2 molecules from ChEMBL document CHEMBL1275268, “Computational analysis of ligand recognition sites of homo- and heteropentameric 5-HT3 receptors” (Eur J Med Chem, 2010).

The structures appear in SMILES notation.

By half-life is commonly meant the time needed for the level to fall by half in the phase considered. By Ki is commonly meant the dissociation constant of the complex between target and ligand, obtained from inhibition or displacement. Lower therefore signals tighter binding.

A short description of data set [1]: Chemical stability of the compound assessed as half life. It is filed as physicochemical.
In data set [2] the target is T1, 5-hydroxytryptamine receptor 3A (Homo sapiens, UniProt P46098).
T1 sequence (P46098 whole entry): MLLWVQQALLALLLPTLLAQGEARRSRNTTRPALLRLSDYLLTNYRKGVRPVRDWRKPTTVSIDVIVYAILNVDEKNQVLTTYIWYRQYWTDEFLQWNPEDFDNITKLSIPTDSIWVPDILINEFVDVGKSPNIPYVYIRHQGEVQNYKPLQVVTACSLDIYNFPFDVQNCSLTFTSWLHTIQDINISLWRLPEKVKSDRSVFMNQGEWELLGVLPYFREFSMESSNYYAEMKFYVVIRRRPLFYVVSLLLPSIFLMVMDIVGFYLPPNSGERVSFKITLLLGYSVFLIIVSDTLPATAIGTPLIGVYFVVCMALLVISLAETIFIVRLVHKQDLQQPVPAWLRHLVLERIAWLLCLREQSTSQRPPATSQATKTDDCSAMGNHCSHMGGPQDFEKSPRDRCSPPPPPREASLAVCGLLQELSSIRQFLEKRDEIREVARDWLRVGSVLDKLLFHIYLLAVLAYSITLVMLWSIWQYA
Put plainly: Binding affinity to 5HT3A receptor.

As to `O=C1c2cccc3c2[C@H](CCC3)CN1[C@@H]1CN2CCC1CC2` [PALONOSETRON], in data set [1], the half-life was 38 h. Besides, the Ki in data set [2] is 0.0316 nM.

For `CN1C2CCCC1CC(NC(=O)c1nn(C)c3ccccc13)C2` (stereo not drawn) [GRANISETRON], the half-life in data set [1] is 5 h.
